Assay results taken from US20210238225A1, “PEPTIDOMIMETIC INHIBITORS OF THE PEPTIDYL-PROLYL CIS/TRANS ISOMERASE (PIN1)” (DANA-FARBER CANCER INSTITUTE, INC., priority 2018, published 2021).
Non-standard residues stand in square brackets, D forms with d. Residues, ends and D or L forms follow the SMILES beside them. *: point of attachment. Phe(4-F) = N[C@@H](Cc1ccc(F)cc1)C(=O)O; 2Nal = N[C@@H](Cc1ccc2ccccc2c1)C(=O)O; NH(4-Me-benzyl) = Cc1ccc(CN*)cc1; Cit = NC(=O)NCCC[C@H](N)C(=O)O; Pip = O=C(O)[C@@H]1CCCCN1; X3 = C=CS(=O)(=O)*; ClAc = O=C(CCl)*; X1 = O=C(C1CO1)*

What was measured:
Pin1 (GST-Pin1) = Pin1 (GST-Pin1) (Homo sapiens, UniProt Q13526); assay: Fluorescence polarization (FP) assay, binding to Pin1; conditions: competition with fluorescein-labeled peptide probe; 12 hours pre-incubation at 4° C.; Kenakin Ki equation; read-out: Ki, μM (FP Assay)
Sequence of Pin1 (GST-Pin1) (Q13526 whole entry): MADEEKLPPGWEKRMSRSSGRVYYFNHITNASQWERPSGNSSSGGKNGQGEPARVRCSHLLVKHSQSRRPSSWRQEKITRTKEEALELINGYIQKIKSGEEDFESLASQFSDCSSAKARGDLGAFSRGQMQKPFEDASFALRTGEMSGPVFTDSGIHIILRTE

Pin1 [1] = target: T1, Pin1 (Homo sapiens, UniProt Q13526); assay: Lysate target engagement (pull down with biotinylated probes; competition assay); assay type: binding; set-up: endogenous in cells; host or cells: MDA-MB-231; conditions: for Lysate Target Engagement?: TNBC-MDA-MB-231 lysate, biotin/dtb probes: pull down, others: competition, concentration under E5; for Lysate Target Engagement? concentration stated for the engagement or pull down: read with the E4 line of the same compound (complete, partial, probe pull down)
T1 sequence (Q13526 whole entry): as above
Description: (§1) TNBC-MDA-MB-231 cells were lysed in lysis buffer (50 mM Hepes pH 7.5, 150 mM NaCl, 1 mM ethylenediaminetetraacetic acid (EDTA), 10% v/v glycerol, 0.5% v/v NP-40, protease inhibitors (Roche)). After clarifying by centrifugation (14,000 rpm for 15 min at 4° C.), lysates were incubated with the indicated concentrations of candidate compound for 1 hour at 4° C. (500 μg of protein per sample, as determined by BCA). Lysates were then incubated with streptavidin agarose resin (30 μL of 1:1 beads: lysis buffer slurry) (Thermo Scientific™, cat. #20349) for 2 hours at 4° C. Beads were washed 4 times with 500 μL of washing buffer (50 mM Hepes, pH 7.5, 10 mM NaCl, 1 mM EDTA, 10% glycerol), then pelleted by centrifugation and dried. The beads were then boiled at 95° C. for 5 minutes in 30 μL of 2× LDS+10% β-mercaptoethanol. Lysates were probed for specified proteins by western blotting using the Bolt system (Life Technologies™).
as §1, with “mM EDTA,” for “mM ethylenediaminetetraacetic acid (EDTA),”, “by centrifugation,” for “by centrifugation (14,000 rpm for 15 min at 4° C.),”, “were pre-incubated” for “were incubated”, “of” for “of candidate”, “compound 18 overnight” for “compound for 1 hour”, “BCA). The lysates were then incubated with 1 μM of compound 2c (desthiobiotin probe) for 1 hour at 4° C.” for “BCA).”

Pin1 [2] = target: T1, Pin1; assay: Cellular target engagement, live cell biotin competition assay in TNBC MDA-MB-231 cells; assay type: cell-based; set-up: endogenous in cells; host or cells: MDA-MB-231; conditions: TNBC MDA-MB-231 cells; for Cellular Target Engagement?: 5 hours treatment, concentration under E7
Description: TNBC MDA-MB-231 cells were plated in 10 cm plates with 2.5 million cells per plate in 6 mL of media. The day after plating, cells were treated with the indicated concentrations of compound 18 for 5 hours. The cells were washed 2× with 0.9% NaCl (1 mL per 10 cm plate), and collected by scraping with a cell scraper. Cells were lysed in lysis buffer (50 mM Hepes pH 7.5, 150 mM NaCl, 1 mM EDTA, 10% v/v glycerol, 0.5% v/v […], protease inhibitors (Roche)) using 210 μL of cell lysis buffer per 10 cm plate of cells. After clarifying by centrifugation (14,000 rpm for 15 min at 4° C.), 5 μL of each lysate sample was combined with 5 μL of 2× LDS+10% β-mercaptoethanol, boiled for 5 minutes, and set aside for the input loading control (later to be loaded directly in the gel). Then, 200 μL of each lysate was then incubated with 1 μM of compound 2-32 (biotin probe compound) for 1 hour at 4° C. Lysates were then incubated with streptavidin agarose resin (30 μL of 1:1 beads: lysis buffer slurry) (Thermo Scientific™, cat. #20349) for 2 hours at 4° C. Beads were washed 4 times with 500 μL of washing buffer (50 mM Hepes, pH7.5, 10 mM NaCl, 1 mM EDTA, 10% glycerol), then pelleted by centrifugation and dried. The beads were then boiled at 95° C. for 5 minutes in 30 μL of 2× LDS+10% β-mercaptoethanol. Lysates were probed for specified proteins by western blotting using the Bolt system (Life Technologies™).

Pin1 Cys 113 = Pin1 Cys 113 (Homo sapiens, UniProt Q13526); assay: Covalent labeling (intact MS); assay type: binding; conditions: purified Pin1 with 5 μM inhibitor, 0-3 hr
Sequence of Pin1 Cys 113 (Q13526 whole entry): as above
Description: 5 μg of purified Pin1 protein in 50 μL of 20 mM HEPES pH 7.5 and 75 mM NaCl was incubated with 5 μM of respective Pin1 inhibitors for 0-3 hr. A Shimadzu XR HPLC was used to inject the entire sample onto a self-packed reverse-phase column (1/32 in outer diameter×500 μm inner diameter, 5 cm of POROS 50R2 resin). After desalting, protein was eluted with an HPLC gradient (0%-100% B in 4 min, A=0.2 M acetic acid in water, B=0.2 M acetic acid in acetonitrile, flow rate=10 μl/min) into a LTQ XL mass spectrometer (Thermo Fisher Scientific, San Jose, Calif., USA). LTQ XL MS spectra were acquired in centroid mode using the electron multipliers for ion detection. Mass spectra were deconvoluted using MagTran1.03b2 software (Zhang and Marshall, J. Am. Soc. Mass Spectrom. 9:225-233 (1998)).

Lysate Target Engagement? (Pin1 [1]) | Lysate Target Engagement? concentration stated for the engagement or pull down (Pin1 [1]) | Covalent? (In tact MS), % labeling (Pin1 Cys 113) | SMILES | Ki (Pin1 (GST-Pin1)) [µM] | Cellular Target Engagement? (Pin1 [2]) | Cellular Target Engagement? concentration stated for complete engagement (Pin1 [2]; read with the E6 line)
Yes-complete | by 10 μM | – | COC(=O)CC[C@H](NC(=O)CCl)C(=O)N1CCCC[C@H]1C(=O)N[C@@H](Cc1ccc2ccccc2c1)C(=O)N[C@@H](CCCNC(N)=O)C(N)=O [Compound 2-11, Methyl (S)-5-((S)-2-(((S)-1-(((S)-1-amino-1-oxo-5-ureidopentan-2-yl)amino)-3-(naphthalen-2-yl)-1-oxopropan-2-yl)carbamoyl)piperidin-1-yl)-4-(2-chloroacetamido)-5-oxopentanoate] (ClAc-E(OMe)[Pip][2Nal][Cit]-NH2) | 0.06 | No | –
Yes-Complete | at 5 μM | – | NC(=O)NCCC[C@H](NC(=O)[C@H](Cc1c[nH]c2ccccc12)NC(=O)[C@@H]1CCCCN1C(=O)[C@H](CCC(=O)O)NC(=O)CCl)C(N)=O [Compound 2b-18, (S)-5-((S)-2-(((S)-1-(((S)-1-Amino-1-oxo-5-ureidopentan-2-yl)amino)-3-(1H-indol-3-yl)-1-oxopropan-2-yl)carbamoyl)piperidin-1-yl)-4-(2-chloroacetamido)-5-oxopentanoic acid] (ClAc-E[Pip]W[Cit]-NH2) | – | No | –
No | – | Yes (93% | NC(=O)NCCC[C@H](NC(=O)[C@H](Cc1ccc2ccccc2c1)NC(=O)[C@@H]1CCCCN1C(=O)[C@H](CCC(=O)O)NC(=O)C1CO1)C(N)=O (stereo partly drawn) [Compound 3b-1, (4S)-5-((S)-2-(((S)-1-(((S)-1-Amino-1-oxo-5-ureidopentan-2-yl)amino)-3-(naphthalen-2-yl)-1-oxopropan-2-yl)carbamoyl)piperidin-1-yl)-4-(oxirane-2-carboxamido)-5-oxopentanoic acid] (X1-E[Pip][2Nal][Cit]-NH2) | 1.61 | No | –
No | – | Yes (93% | C=CS(=O)(=O)N[C@@H](CCC(=O)O)C(=O)N1CCCC[C@H]1C(=O)N[C@@H](Cc1ccc2ccccc2c1)C(=O)N[C@@H](CCCNC(N)=O)C(N)=O [Compound 4, (S)-5-((S)-2-(((S)-1-(((S)-1-Amino-1-oxo-5-ureidopentan-2-yl)amino)-3-(naphthalen-2-yl)-1-oxopropan-2-yl)carbamoyl)piperidin-1-yl)-5-oxo-4(vinylsulfonamido)pentanoic acid] (X3-E[Pip][2Nal][Cit]-NH2) | 0.35 | – | –

SMILES | Lysate Target Engagement? (Pin1 [1]) | Lysate Target Engagement? concentration stated for the engagement or pull down (Pin1 [1]) | Covalent? (In tact MS), % labeling (Pin1 Cys 113) | Ki (Pin1 (GST-Pin1)) [µM] | Cellular Target Engagement? (Pin1 [2]) | Cellular Target Engagement? concentration stated for complete engagement (Pin1 [2]; read with the E6 line)
NC(=O)[C@H](Cc1ccc(F)cc1)NC(=O)[C@H](Cc1c[nH]c2ccccc12)NC(=O)[C@@H]1CCCCN1C(=O)[C@H](CCC(=O)O)NC(=O)CCl [Compound 2-27, (S)-5-((S)-2-(((S)-1-(((S)-1-Amino-3-(4-fluorophenyl)-1-oxopropan-2-yl)amino)-3-(1H-indol-3-yl)-1-oxopropan-2-yl)carbamoyl)piperidin-1-yl)-4-(2-chloroacetamido)-5-oxopentanoic acid] (ClAc-E[Pip]W[Phe(4-F)]-NH2) | Yes-partial | at 10 μM | – | 0.075 | No | –
COC(=O)CC[C@H](NC(=O)CCl)C(=O)N1CCCC[C@H]1C(=O)N[C@@H](Cc1c[nH]c2ccccc12)C(=O)N[C@@H](Cc1ccc(O)cc1)C(=O)NCc1ccc(C)cc1 [Compound 11-1, Methyl (S)-4-(2-chloroacetamido)-5-((S)-2-(((S)-1-(((S)-3-(4-hydroxyphenyl)-1-((4-methyl-benzyl)amino)-1-oxopropan-2-yl)amino)-3-(1H-indol-3-yl)-1-oxopropan-2-yl)carbamoyl)piperidin-1-yl)-5-oxopentanoate] | No | – | – | 0.176 | No | –
COC(=O)CC[C@H](NC(=O)CCl)C(=O)N1CCCC[C@H]1C(=O)N[C@@H](Cc1c[nH]c2ccccc12)C(=O)N[C@@H](Cc1c[nH]c2ccccc12)C(=O)NCc1ccc(C)cc1 [Compound 11-2, Methyl (S)-5-((S)-2-(((S)-1-(((S)-3-(1H-indol-3-yl)-1-((4-methylbenzyl)amino)-1-oxopropan-2-yl)amino)-3-(1H-indol-3-yl)-1-oxopropan-2-yl)carbamoyl)piperidin-1-yl)-4-(2-chloroacetamido)-5-oxopentanoate] (ClAc-E(OMe)[Pip]WW-{NH(4-Me-benzyl)}) | No | – | – | > 10 | No | –
Cc1ccc(CNC(=O)[C@H](CCCNC(N)=O)NC(=O)[C@H](Cc2c[nH]c3ccccc23)NC(=O)[C@@H]2CCCCN2C(=O)[C@H](Cc2ccccc2)NC(=O)CCl)cc1 [Compound 11-23, (S)—N—((S)-3-(1H-indol-3-yl)-1-(((S)-1-((4-methylbenzyl)amino)-1-oxo-5-ureidopentan-2-yl)amino)-1-oxopropan-2-yl)-1-((2-chloroacetyl)-L-phenylalanyl)piperidine-2-carboxamide] (ClAc-F[Pip]W[Cit]-{NH(4-Me-benzyl)}) | – | – | Yes (100% | 0.004 | Yes-Complete | at 10 μM
